Residues, ends and D or L forms follow the SMILES beside them. *: point of attachment. Cbz = O=C(OCc1ccccc1)*
Legend:
Rap1 = Rap1 inhibition experiment, R-VEC tube formation; format: cell-based, human; conditions: R-VECs, 10 μM, 4 weeks
Protocol: Tube formation assays for endothelial cells with or without ETV2 were set up in 24 wells as described above. The next day, Rap1 inhibitor (GGTI-298, Tocris) resuspended in DMSO was added to the wells at a 1:1000 dilution at the final concentration of 10 μM, while the same amount of DMSO was added to the control wells. The inhibitor and media were changed every other day for 4 weeks. Images were obtained and calculated as described above at 1 week and 4 week time points.

ETV2 protein levels = assay: Proteasome inhibition experiment in R-VEC tubes; format: cell-based, human; conditions: R-VEC tubes at stabilization stage (4 weeks), 20 μM for 6 hrs vs DMSO, Western blot
Protocol: Cells were lysed into 1×SDS loading buffer (50 mM Tris-HCl pH 6.8, 5% beta-mercaptoethanol, 2% SDS, 0.01% bromophenol blue, 10% glycerol) followed by sonication (Bioruptor, 2×30 seconds at high setting). Proteins were solved on 5-15% gradient Tris-glycine SDS-PAGE and semi-dry transferred to nitrocellulose membranes. The following primary antibodies were used at indicated dilutions: Rap1 (CST, #2399, 1:1,000); RASGRP3 (CST, #3334, 1:1,000), GAPDH (CST, #5174, 1:10,000); AKT (CST, 34685, 1:5,000); p-S473-Akt (CST, #4060, 1:2,000); ETS1 (CST, #14069, 1,000); and ETV2 (Abcam, ab181847, 1:1,000). HRP-conjugated secondary antibodies and the ECL Prime Western Blotting System (GE Healthcare, RPN2232) were then used. Chemiluminescent signals were captured with a digital camera (Kindle Biosciences) and images of protein bands taken for quantification using ImageJ.
R-VEC vessels were prepared on Matrigel as described above. At stabilization stage (4 weeks), R-VEC tubes were treated with either 20 μM of MG132 (Selleck Chemicals) or DMSO for 6 hrs. The media was removed and the wells were washed once with PBS. R-VEC tubes were then incubated in a solution of 2 mg/ml Dispase (Sigma) for 45 mins at 37° C. to dissociate the tubes. 20 μM of MG132 (Selleck Chemicals) or DMSO was continuously provided during the dissociation period. […]

| Compound | lumen (Rap1; confocal and electron microscopy) | vessel formation (Rap1; vs DMSO) | ETV2 protein levels restored (ETV2 protein levels) |
| --- | --- | --- | --- |
| COC(=O)[C@H](CC(C)C)NC(=O)c1ccc(NC[C@@H](N)CS)cc1-c1cccc2ccccc12 [GGTI298] | no lumen was present | significantly reduced |  |
| CC(C)C[C@@H](C=O)NC(=O)[C@H](CC(C)C)NC(=O)[C@H](CC(C)C)NC(=O)OCc1ccccc1 [MG132] (Cbz-Leu-Leu-Leu-aldehyde) |  |  | six-fold |

— US12576114B2, “Methods of functional vascularization of pancreatic islets and beta-cell organoids” (CORNELL UNIVERSITY, priority 2019, dated 2026)
